# Results published in patent publication US9538759B2, “Chemical compositions and methodology to enhance plant growth and development” (priority 2013, dated 2017).
# Key:
# Assay type in all cases: in vivo
# [1] = test system: seed; assay: Replicated field plots comparing two lipoxygenase inhibitors as seed treatments, Safford, Arizona; details: for Germination % / Seedling Ht. (cm) / Surviving Stand %: inhibitor coated at 2.0 g per kg dry seed; for Germination % / Seedling Ht. (cm) / Surviving Stand % / Emergence Coeff.: fungicide co-treatment, mean ± standard error; for Emergence Coeff.: smaller coefficient = faster seedling emergence, 2.0 g per kg dry seed
# Source text: The presence of lipoxygenase isoenzymes has always been considered a necessary enzymatic constituent of seed, with the enzyme especially predominant in oil seeds. The detrimental effects of lipoxygenase activity on the viability and storage attributes of seeds have been reported by a number of authors. (Leopold; Parrish; Pfeiffer, et al.: and Hajika, et al.)
# Propyl gallate is the inhibitor and antioxidant of choice for inclusion in the improvement of U.S. Pat. No. 4,209,316 described in this application. […] Selected location: Safford, Arizona Experimental Research Station. Each data entry represents the mean of replicated random samples plus or minus the standard error. The smaller the emergence coefficient, the faster the speed of seedling emergence from the soil. All treatments except the first control received a fungicide co-treatment. Lipoxygenase inhibitors were coated on the seed at a rate of 2.0 grams per kilogram of dry seed.
# [2] = test system: Acala type cottons; assay: Harvested seed cotton weight of container grown cottons, Tucson, Ariz.
# Source text: Table three illustrates the comparative advantage of the combination of buffered AMP and propyl gallate liquid formulation applied to two sets of Acala type cottons container grown in Tucson, Ariz. An extended harvest period was possible. Seed cotton was hand picked over several weeks. Bolls with fiber and seed were dried, individually weighed, and treatments were separated and bulked together. Osmocote complete fertilizer was applied twice—at two and four weeks—following the chemical formulation applications.
# [3] = test system: seeds; assay: Classical antioxidants applied to seeds at much higher concentrations
Molecule,Germination % [1] [%],Seedling Ht. (cm) [1] [cm],Surviving Stand % [1] [%],effectiveness as lipoxygenase inhibitor seed treatment ([1]; seed treatment with inhibitor alone),Emergence Coeff. [1],Combined weight of harvested seed cotton per group (in grams) ([2]; group one) [grams],Combined weight of harvested seed cotton per group (in grams) ([2]; group two) [grams],enhancement of seed germination and viability traits [3]
Oc1ccc(O)cc1 [Hydroquinone],22.9 ± 3.1,16.6 ± 0.4,60.6 ± 3.5,effective,0.50 ± 0.04,–,–,–
"CCCOC(=O)c1cc(O)c(O)c(O)c1 [Propyl Gallate, propyl gallate]",23.0 ± 2.3,17.3 ± 0.6,57.8 ± 3.0,–,0.52 ± 0.03,640,423,–
O=C1O[C@H]([C@@H](O)CO)C(O)=C1O [ascorbic acid],–,–,–,–,–,–,–,no enhancement
Cc1cc(C(C)(C)C)c(O)c(C(C)(C)C)c1 [butylated hydroxylated toluene],–,–,–,–,–,–,–,no enhancement
vitamin E,–,–,–,–,–,–,–,no enhancement
